How the values were obtained:
Assay in all cases: Kinase selectivity, scanMAX Kinase assay panel (DiscoverX), % control at 1 uM
Format in all cases: binding
[1] = target: T1, scanMAX Kinase assay panel (Homo sapiens, UniProt P12931); details: SRC; 1 uM; read-out: Percent Control (%)
T1 construct: purchased DiscoverX
Procedure, shortened: (§1)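 Binding across the scanMAX kinase panel was tested at 1 uM compound. % control = (compound − positive control)/(negative control − positive control) × 100; below 35 counted as active.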

[2] = target: T2, scanMAX Kinase assay panel (Homo sapiens, UniProt P15056); details: BRAF; 1 uM; read-out: Percent Control (%)
T2 construct: purchased DiscoverX
T2 sequence (P15056 whole entry): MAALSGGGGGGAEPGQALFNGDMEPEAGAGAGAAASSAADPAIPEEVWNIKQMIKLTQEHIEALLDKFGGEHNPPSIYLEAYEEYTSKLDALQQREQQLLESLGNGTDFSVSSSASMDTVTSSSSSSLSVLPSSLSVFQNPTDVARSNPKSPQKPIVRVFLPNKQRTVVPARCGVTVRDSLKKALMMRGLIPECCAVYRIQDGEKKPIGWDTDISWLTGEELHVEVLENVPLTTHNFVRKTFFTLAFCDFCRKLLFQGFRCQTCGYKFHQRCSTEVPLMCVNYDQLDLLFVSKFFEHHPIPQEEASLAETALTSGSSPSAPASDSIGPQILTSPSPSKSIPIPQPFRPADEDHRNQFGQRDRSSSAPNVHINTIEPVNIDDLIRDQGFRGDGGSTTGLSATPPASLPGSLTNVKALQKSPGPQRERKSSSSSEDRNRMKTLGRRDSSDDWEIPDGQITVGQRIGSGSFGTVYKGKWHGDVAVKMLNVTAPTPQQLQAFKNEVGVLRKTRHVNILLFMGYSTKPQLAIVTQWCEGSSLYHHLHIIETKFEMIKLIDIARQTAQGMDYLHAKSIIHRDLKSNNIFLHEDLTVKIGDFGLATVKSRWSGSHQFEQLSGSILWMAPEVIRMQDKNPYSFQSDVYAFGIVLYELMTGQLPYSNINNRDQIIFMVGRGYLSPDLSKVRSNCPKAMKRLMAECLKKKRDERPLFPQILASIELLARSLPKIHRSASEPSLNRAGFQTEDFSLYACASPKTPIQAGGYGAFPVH
Procedure, shortened: as §1

[3] = target: T3, scanMAX Kinase assay panel (Homo sapiens, UniProt P21127); details: CDC2L1; 1 uM; read-out: Percent Control (%)
T3 construct: purchased DiscoverX
Procedure, shortened: as §1

[4] = target: T4, scanMAX Kinase assay panel (Homo sapiens, UniProt P36507); details: MEK2; 1 uM; read-out: Percent Control (%)
T4 construct: purchased DiscoverX
Procedure, shortened: as §1

[5] = target: T5, scanMAX Kinase assay panel (Homo sapiens, UniProt P36894); details: BMPR1A; 1 uM; read-out: Percent Control (%)
T5 construct: purchased DiscoverX
Procedure, shortened: as §1

[6] = target: T6, scanMAX Kinase assay panel (Homo sapiens, UniProt P42336, I800L); details: PIK3CA (I800L); 1 uM; read-out: Percent Control (%)
T6 construct: purchased DiscoverX
Procedure, shortened: as §1

[7] = target: T7, scanMAX Kinase assay panel (Homo sapiens, UniProt P51817); details: PRKX; 1 uM; read-out: Percent Control (%)
T7 construct: purchased DiscoverX
T7 sequence (P51817 1-358): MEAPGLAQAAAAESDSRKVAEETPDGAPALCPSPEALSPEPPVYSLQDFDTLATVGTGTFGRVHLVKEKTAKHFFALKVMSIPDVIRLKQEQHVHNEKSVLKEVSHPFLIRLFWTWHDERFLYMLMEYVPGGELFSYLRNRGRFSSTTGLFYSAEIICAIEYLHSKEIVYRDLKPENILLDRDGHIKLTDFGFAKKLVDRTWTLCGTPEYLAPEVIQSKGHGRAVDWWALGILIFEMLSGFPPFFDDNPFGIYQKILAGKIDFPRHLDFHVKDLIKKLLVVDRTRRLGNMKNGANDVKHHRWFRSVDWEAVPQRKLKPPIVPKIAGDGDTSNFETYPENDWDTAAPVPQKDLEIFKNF
Procedure, shortened: as §1

[8] = target: T8, scanMAX Kinase assay panel (Homo sapiens, UniProt P51957); details: NEK4; 1 uM; read-out: Percent Control (%)
T8 construct: purchased DiscoverX
T8 sequence (P51957 whole entry): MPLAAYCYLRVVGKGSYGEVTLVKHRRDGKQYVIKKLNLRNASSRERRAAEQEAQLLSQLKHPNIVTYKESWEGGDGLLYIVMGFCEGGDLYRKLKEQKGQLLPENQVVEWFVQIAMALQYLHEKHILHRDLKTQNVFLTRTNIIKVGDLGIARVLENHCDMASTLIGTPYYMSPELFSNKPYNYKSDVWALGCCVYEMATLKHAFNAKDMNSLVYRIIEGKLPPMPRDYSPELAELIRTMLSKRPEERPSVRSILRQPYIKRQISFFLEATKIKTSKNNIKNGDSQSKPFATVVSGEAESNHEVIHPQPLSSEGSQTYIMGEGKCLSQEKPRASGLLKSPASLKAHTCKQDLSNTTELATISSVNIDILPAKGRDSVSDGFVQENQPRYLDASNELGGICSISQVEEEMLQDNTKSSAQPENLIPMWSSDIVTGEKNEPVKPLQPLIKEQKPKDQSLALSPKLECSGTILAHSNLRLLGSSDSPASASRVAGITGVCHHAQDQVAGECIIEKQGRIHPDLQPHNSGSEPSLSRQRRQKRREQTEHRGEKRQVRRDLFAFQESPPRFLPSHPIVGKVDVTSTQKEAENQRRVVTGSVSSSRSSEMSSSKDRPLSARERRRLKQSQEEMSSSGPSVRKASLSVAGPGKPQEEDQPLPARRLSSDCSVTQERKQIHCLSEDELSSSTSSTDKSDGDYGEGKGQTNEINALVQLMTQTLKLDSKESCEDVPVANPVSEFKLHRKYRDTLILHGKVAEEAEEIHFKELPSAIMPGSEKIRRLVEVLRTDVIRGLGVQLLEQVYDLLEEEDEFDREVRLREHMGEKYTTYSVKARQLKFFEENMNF
Procedure, shortened: as §1

[9] = target: T9, scanMAX Kinase assay panel (Homo sapiens, UniProt Q07912); details: TNK2; 1 uM; read-out: Percent Control (%)
T9 construct: purchased DiscoverX
T9 sequence (Q07912 whole entry): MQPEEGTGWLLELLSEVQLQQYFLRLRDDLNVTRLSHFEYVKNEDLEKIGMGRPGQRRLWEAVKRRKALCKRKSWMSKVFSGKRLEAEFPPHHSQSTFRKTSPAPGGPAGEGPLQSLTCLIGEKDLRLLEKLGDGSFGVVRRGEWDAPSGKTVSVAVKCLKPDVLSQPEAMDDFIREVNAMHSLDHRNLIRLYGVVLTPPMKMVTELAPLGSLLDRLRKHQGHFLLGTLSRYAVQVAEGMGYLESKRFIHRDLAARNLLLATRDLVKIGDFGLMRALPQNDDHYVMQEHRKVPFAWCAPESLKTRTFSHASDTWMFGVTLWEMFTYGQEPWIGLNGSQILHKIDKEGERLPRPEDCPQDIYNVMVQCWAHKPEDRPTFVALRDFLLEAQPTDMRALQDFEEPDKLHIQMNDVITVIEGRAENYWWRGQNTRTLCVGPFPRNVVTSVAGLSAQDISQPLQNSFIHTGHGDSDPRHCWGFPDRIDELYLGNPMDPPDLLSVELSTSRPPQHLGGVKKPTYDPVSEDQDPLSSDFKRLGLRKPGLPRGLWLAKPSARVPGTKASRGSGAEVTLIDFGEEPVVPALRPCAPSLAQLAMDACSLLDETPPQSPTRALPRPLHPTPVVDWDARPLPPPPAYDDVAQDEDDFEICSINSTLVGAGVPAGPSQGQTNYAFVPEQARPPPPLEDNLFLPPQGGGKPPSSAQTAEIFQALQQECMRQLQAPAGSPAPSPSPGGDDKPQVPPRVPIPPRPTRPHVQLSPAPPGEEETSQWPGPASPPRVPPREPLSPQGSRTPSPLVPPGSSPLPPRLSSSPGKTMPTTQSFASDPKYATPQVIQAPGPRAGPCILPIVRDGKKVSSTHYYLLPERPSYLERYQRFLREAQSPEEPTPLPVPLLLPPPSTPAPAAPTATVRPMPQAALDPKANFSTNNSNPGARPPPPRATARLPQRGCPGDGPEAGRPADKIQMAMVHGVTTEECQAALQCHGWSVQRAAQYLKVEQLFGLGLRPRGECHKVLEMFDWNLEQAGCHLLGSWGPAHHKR
Procedure, shortened: as §1

[10] = target: T10, scanMAX Kinase assay panel (Homo sapiens, UniProt Q13163); details: MEK5; 1 uM; read-out: Percent Control (%)
T10 construct: purchased DiscoverX
T10 sequence (Q13163 1-448): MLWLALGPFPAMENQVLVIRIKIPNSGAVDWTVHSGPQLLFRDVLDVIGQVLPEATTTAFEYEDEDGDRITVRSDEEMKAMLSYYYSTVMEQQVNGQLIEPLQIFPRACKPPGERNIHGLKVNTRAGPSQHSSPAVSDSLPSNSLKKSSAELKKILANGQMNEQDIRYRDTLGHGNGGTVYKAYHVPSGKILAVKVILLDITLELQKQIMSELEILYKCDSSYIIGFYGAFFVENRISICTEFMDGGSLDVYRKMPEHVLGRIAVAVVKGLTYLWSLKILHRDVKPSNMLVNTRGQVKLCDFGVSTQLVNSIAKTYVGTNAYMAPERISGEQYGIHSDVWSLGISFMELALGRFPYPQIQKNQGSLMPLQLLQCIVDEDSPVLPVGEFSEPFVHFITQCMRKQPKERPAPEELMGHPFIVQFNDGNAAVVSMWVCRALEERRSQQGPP
Procedure, shortened: as §1

[11] = target: T11, scanMAX Kinase assay panel (Homo sapiens, UniProt Q15208); details: NDR1; 1 uM; read-out: Percent Control (%)
T11 construct: purchased DiscoverX
T11 sequence (Q15208 whole entry): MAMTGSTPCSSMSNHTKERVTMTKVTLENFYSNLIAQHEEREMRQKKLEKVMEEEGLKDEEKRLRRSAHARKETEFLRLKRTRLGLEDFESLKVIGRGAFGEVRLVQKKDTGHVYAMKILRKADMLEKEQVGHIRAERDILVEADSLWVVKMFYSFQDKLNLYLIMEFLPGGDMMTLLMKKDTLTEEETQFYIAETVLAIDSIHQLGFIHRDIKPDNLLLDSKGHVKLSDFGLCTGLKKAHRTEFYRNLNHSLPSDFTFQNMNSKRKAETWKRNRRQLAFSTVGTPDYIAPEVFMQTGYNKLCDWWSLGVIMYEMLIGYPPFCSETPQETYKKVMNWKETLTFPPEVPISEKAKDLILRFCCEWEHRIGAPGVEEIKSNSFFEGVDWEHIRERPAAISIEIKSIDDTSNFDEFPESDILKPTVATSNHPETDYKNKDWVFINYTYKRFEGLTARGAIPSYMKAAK
Procedure, shortened: as §1

[12] = target: T12, scanMAX Kinase assay panel (Homo sapiens, UniProt Q7KZI7); details: MARK2; 1 uM; read-out: Percent Control (%)
T12 construct: purchased DiscoverX
T12 sequence (Q7KZI7 whole entry): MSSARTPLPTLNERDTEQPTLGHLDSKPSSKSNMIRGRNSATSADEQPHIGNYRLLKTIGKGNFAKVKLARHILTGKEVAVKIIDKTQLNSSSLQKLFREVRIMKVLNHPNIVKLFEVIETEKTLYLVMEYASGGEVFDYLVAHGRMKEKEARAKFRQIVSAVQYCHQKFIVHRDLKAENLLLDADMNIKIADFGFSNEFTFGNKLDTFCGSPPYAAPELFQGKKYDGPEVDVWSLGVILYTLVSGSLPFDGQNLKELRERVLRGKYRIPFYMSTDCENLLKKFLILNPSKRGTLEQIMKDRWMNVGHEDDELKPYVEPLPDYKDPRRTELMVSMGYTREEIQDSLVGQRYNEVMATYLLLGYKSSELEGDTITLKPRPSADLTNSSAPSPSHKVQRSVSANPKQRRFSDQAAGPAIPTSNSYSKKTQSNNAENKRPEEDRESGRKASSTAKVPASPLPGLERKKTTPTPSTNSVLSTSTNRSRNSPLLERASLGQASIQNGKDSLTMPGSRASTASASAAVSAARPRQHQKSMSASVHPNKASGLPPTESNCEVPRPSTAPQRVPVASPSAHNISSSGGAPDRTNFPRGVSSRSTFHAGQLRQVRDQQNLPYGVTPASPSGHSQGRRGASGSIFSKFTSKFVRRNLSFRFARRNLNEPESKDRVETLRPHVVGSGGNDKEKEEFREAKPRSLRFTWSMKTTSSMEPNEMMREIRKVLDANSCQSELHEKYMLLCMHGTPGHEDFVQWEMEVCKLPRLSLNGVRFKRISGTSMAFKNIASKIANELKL
Procedure, shortened: as §1

[13] = target: T13, scanMAX Kinase assay panel (Homo sapiens, UniProt Q9H3Y6); details: SRMS; 1 uM; read-out: Percent Control (%)
T13 construct: purchased DiscoverX
Procedure, shortened: as §1

[14] = target: T14, scanMAX Kinase assay panel (Homo sapiens, UniProt Q9NWZ3); details: IRAK4; 1 uM; read-out: Percent Control (%)
T14 construct: purchased DiscoverX
T14 sequence (Q9NWZ3 1-460): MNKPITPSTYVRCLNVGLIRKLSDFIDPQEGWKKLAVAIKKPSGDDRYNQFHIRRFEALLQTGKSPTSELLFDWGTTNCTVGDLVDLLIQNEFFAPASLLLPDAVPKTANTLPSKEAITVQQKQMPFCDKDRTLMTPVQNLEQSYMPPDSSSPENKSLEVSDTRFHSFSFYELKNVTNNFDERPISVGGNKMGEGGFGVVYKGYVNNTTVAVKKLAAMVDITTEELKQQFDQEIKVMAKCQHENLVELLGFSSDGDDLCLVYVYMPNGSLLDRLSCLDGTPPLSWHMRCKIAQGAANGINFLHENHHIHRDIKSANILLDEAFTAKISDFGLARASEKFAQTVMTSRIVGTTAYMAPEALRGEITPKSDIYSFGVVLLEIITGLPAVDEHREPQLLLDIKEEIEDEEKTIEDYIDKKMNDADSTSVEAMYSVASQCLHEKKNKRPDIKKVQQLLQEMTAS
Procedure, shortened: as §1

[15] = target: T15, scanMAX Kinase assay panel (Homo sapiens, UniProt Q9P0L2); details: MARK1; 1 uM; read-out: Percent Control (%)
T15 construct: purchased DiscoverX
Procedure, shortened: as §1

[16] = target: T16, scanMAX Kinase assay panel (Homo sapiens, UniProt Q9UIK4); details: DAPK2; 1 uM; read-out: Percent Control (%)
T16 construct: purchased DiscoverX
T16 sequence (Q9UIK4 whole entry): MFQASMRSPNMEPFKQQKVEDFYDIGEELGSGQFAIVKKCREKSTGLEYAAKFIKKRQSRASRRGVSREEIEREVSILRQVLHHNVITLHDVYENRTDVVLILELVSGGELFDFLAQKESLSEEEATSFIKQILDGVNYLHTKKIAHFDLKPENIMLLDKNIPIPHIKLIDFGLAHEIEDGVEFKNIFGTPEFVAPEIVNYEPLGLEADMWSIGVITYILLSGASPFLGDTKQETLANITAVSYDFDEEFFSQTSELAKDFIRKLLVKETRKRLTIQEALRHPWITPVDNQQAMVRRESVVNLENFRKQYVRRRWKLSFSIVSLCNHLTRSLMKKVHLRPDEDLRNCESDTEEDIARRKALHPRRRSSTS
Procedure, shortened: as §1

T1 sequence (P12931 whole entry): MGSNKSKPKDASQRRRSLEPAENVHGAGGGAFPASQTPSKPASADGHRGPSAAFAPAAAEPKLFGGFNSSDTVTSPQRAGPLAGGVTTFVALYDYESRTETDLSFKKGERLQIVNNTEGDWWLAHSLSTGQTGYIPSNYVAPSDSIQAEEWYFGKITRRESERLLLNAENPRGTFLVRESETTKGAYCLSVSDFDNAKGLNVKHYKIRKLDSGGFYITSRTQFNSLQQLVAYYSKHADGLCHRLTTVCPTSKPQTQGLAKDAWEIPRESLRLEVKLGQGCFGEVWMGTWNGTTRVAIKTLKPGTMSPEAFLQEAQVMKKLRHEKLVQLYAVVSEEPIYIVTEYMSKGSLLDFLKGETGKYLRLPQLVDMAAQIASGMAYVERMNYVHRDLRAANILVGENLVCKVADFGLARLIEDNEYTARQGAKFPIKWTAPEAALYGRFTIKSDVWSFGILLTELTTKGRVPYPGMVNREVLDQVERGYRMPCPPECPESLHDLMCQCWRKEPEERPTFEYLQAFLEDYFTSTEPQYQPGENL

| SMILES | remaining binding at 1 µM [1] [%] | remaining binding at 1 µM [2] [%] | remaining binding at 1 µM [3] [%] | remaining binding at 1 µM [4] [%] | remaining binding at 1 µM [5] [%] | remaining binding at 1 µM [6] [%] | remaining binding at 1 µM [7] [%] | remaining binding at 1 µM [8] [%] | remaining binding at 1 µM [9] [%] | remaining binding at 1 µM [10] [%] | remaining binding at 1 µM [11] [%] | remaining binding at 1 µM [12] [%] | remaining binding at 1 µM [13] [%] | remaining binding at 1 µM [14] [%] | remaining binding at 1 µM [15] [%] | remaining binding at 1 µM [16] [%] |
| --- | --- | --- | --- | --- | --- | --- | --- | --- | --- | --- | --- | --- | --- | --- | --- | --- |
| Cc1ccc(C(=O)Nc2ccc(CN3CCN(C)CC3)c(C(F)(F)F)c2)cc1C#Cc1cnc2c(Nc3cnn(C)c3)cccn12 [Example 1, 4-methyl-3-((8-((1-methyl-1H-pyrazol-4-yl)amino)imidazo[1,2-a]pyridin-3-yl)ethynyl)-N-(4-((4-methylpiperazin-1-yl)methyl)-3-(trifluoromethyl)phenyl)benzamide] | 0 | 18 | 20 | 76 | 77 | 80 | 93 | 9 | 2 | 1 | 56 | 73 | 8 | 22 | 78 | 82 |
| Cc1cn(-c2cc(NC(=O)c3ccc(C)c(C#Cc4cnc5c(Nc6cnn(C)c6)cccn45)c3)cc(C(F)(F)F)c2)cn1 [Example 12, 4-methyl-N-(3-(4-methyl-1H-imidazol-1-yl)-5-(trifluoromethyl)phenyl)-3-((8-((1-methyl-1H-pyrazol-4-yl)amino)imidazo[1,2-a]pyridin-3-yl)ethynyl)benzamide] | 1 | 80 | 80 | 88 | 60 | 75 | 97 | 61 | 28 | 1 | 98 | 99 | 75 | 81 | 95 | 97 |
| Cc1ccc(NC(=O)C2(C(=O)Nc3ccc(F)cc3)CC2)cc1C#Cc1cnc2c(Nc3cnn(C(C)C)c3)cccn12 [Example 78] | 73 | 100 | 100 | 97 | 94 | 92 | 78 | 100 | 100 | 21 | 83 | 89 | 94 | 100 | 100 | 100 |

From US10870647B2, “Imidazopyridine derivative, method for preparing same, and pharmaceutical composition containing same as active ingredient for preventing or treating cancer” (DAEGU-GYEONGBUK MEDICAL INNOVATION FOUNDATION, priority 2016, dated 2020)
